Legend:
Format in all cases: functional
[1] = test system: 3T3-L1; assay: Acute effects in vitro by measuring 2-deoxyglucose (2DG) uptake in vehicle treated 3T3-L1 adipocytes at 30 uM dose.
[2] = test system: 3T3-L1; assay: In vitro measurements of 2-Deoxyglucose (2DG) uptake in vehicle treated 3T3-L1 adipocytes at 60 uM dose.
[3] = test system: 3T3-L1; assay: compound was evaluated for their acute effects in vitro by measuring 2-Deoxyglucose (2DG) uptake in vehicle treated 3T3-L1 adipocytes at concentration of 10 micro M
[4] = test system: 3T3-L1; assay: compound was evaluated for their acute effects in vitro by measuring 2-Deoxyglucose (2DG) uptake in vehicle treated 3T3-L1 adipocytes at concentration of 3 micro M
[5] = test system: 3T3-L1; assay: compound was evaluated for their acute effects in vitro by measuring 2-Deoxyglucose (2DG) uptake in vehicle treated 3T3-L1 adipocytes at concentration of 30 micro M
[6] = test system: Mus musculus; assay: compound was tested in vivo for hypoglycemic activity expressed as Glucose lowering relative to positive control in 6-8 week old C57BL/6J ob/ob mouse at 0.5 mg/kg
[7] = test system: Mus musculus; assay: In vivo hypoglycemic activity expressed as glucose lowering relative to positive control in 6-8 week old C57BL/6J ob/ob mouse at 10 mg/kg
[8] = test system: Mus musculus; assay: In vivo hypoglycemic activity expressed as glucose lowering relative to positive control in 6-8 week old C57BL/6J ob/ob mouse at 1 mg/kg.
[9] = test system: Mus musculus; assay: In vivo hypoglycemic activity expressed as glucose lowering relative to positive control in 6-8 week old C57BL/6J ob/ob mouse at 5 mg/kg.
[10] = species on record: Rattus norvegicus; assay: Inhibition of gluconeogenesis in rat; settings: Rattus norvegicus; read-out: ED50
[11] = test system: Mus musculus; assay: compound was tested in vivo for hypoglycemic activity in 6-8 week old C57BL/6J ob/ob mouse at 10 mg/kg
[12] = species on record: Rattus norvegicus; assay: Compound was tested for inhibition of gluconeogenesis; settings: Rattus norvegicus; read-out: ED50
[13] = test system: 3T3-L1; assay: In vitro measurements 2-Deoxyglucose (2DG) uptake in vehicle treated 3T3-L1 adipocytes at 100 uM dose.
[14] = test system: Mus musculus; assay: compound was tested in vivo for hypoglycemic activity expressed as Glucose lowering relative to positive control in 6-8 week old C57BL/6J ob/ob mouse at 50 mg/kg
[15] = test system: 3T3-L1; assay: Acute effects in vitro by measuring 2-deoxyglucose (2DG) uptake in vehicle treated 3T3-L1 adipocytes at 10 uM dose.
[16] = test system: 3T3-L1; assay: compound was evaluated for their acute effects in vitro by measuring 2-Deoxyglucose (2DG) uptake in vehicle treated 3T3-L1 adipocytes at 1 uM dose.
[17] = test system: 3T3-L1; assay: In vitro by measurements of 2-Deoxyglucose (2DG) uptake in vehicle treated 3T3-L1 adipocytes at 3 uM dose.
[18] = test system: L6; assay: compound was evaluated for their acute effects in vitro by measuring 2-Deoxyglucose (2DG) uptake in vehicle treated L6 […] at 60 uM dose.
[19] = test system: 3T3-L1; assay: compound was evaluated for their acute effects in vitro by measuring 2-Deoxyglucose (2DG) uptake in vehicle treated 3T3-L1 adipocytes at 30 uM dose.
[20] = test system: 3T3-L1; assay: compound was evaluated for their acute effects in vitro by measuring 2-Deoxyglucose (2DG) uptake in vehicle treated 3T3-L1 adipocytes at 100 uM dose.
[21] = test system: Mus musculus; assay: compound was tested in vivo for hypoglycemic activity in 6-8 week old C57BL/6J ob/ob mouse at 50 mg/kg

Row | SMILES | Basal uptake [1] [%] | Hypoglycemic activity [7] [%] | Hypoglycemic activity [8] [%] | Hypoglycemic activity [9] [%] | ED50 [10] [mg/kg] | Basal uptake [15] [%] | Basal uptake [16] [%] | Basal uptake [17] [%] | other results
1 | CCCc1ccc(CC(C)(Oc2ccc(C(C)C)cc2)C(=O)[O-])cc1.[Na+] (stereo unspecified) | 97 | 113 | 70 | 134 | 0.5 | – | – | – | Basal uptake [2]: 282%; Basal uptake [3]: 100%; Basal uptake [4]: 103%; Basal uptake [5]: 233%; Hypoglycemic activity [6]: 69%
2 | CCc1cccc(CC(C)(Oc2ccc(C(C)C)cc2)C(=O)[N-]S(=O)(=O)C(F)(F)F)c1.[Na+] (stereo unspecified) | – | – | – | – | – | – | – | – | Hypoglycemic activity [11]: 43%; ED50 [12]: > 10 mg/kg
3 | COc1ccc(CC(Oc2ccc(C(C)C)cc2)C(=O)O)cc1 (stereo unspecified) | – | – | – | – | > 50 | – | – | – | Basal uptake [13]: 127%; Hypoglycemic activity [14]: <0%
4 | CC(C)c1ccc(OC(Cc2ccc3ccccc3c2)C(=O)O)cc1 (stereo unspecified) | – | – | – | – | 50 | – | – | – | Basal uptake [13]: 143%; Hypoglycemic activity [14]: 45%
5 | CC(C)c1ccc(OC(C)(Cc2ccccc2-c2ccccc2)C(=O)[O-])cc1.[Na+] (stereo unspecified) | 167 | 54 | – | – | 10 | 228 | 97 | 148 | –
6 | CC(C)c1ccc(OC(C(=O)O)c2ccc(Cl)cc2)cc1 (stereo unspecified) | – | – | – | – | > 50 | – | – | – | Basal uptake [13]: 248%; Hypoglycemic activity [14]: <0%
7 | CC(C)c1ccc(CC(C)(Cc2ccc(Cl)cc2)C(=O)O)cc1 (stereo unspecified) | – | – | – | – | – | – | – | – | Hypoglycemic activity [11]: 20%; ED50 [12]: > 10 mg/kg
8 | CC(Cc1ccc(Cl)cc1)(Oc1ccc(C2CCSc3ccccc32)cc1)C(=O)[O-].[Na+] (stereo unspecified) | 157 | 38 | – | – | 10 | 118 | 98 | 130 | –
9 | CC(C)c1ccc(OC(C)(Cc2ccc(Cl)cc2)C(=O)NS(=O)(=O)C(F)(F)F)cc1 (stereo unspecified) | 273 | – | – | – | 5 | 232 | 108 | 130 | Basal uptake [2]: 79%
10 | CC(C)c1ccc(OC(C)(Cc2ccc(C(F)(F)F)cc2)C(=O)O)cc1 (stereo unspecified) | – | – | – | 65 | < 5 | – | – | – | Basal uptake [18]: 103%
11 | CCCc1cccc(CC(C)(Oc2ccc(C(C)C)cc2)C(=O)[O-])c1.[Na+] (stereo unspecified) | 229 | 123 | 47 | 82 | 1 | 128 | 123 | 136 | –
12 | CCc1ccc(CC(C)(Oc2ccc(C(=O)c3ccccc3)cc2)C(=O)O)cc1 (stereo unspecified) | – | 107 | 65 | 108 | 0.5 | – | – | – | Hypoglycemic activity [6]: 60%
13 | CC(Cc1ccc2c(c1)CCC2)(Oc1ccc(Cc2ccccc2)cc1)C(=O)[O-].[Na+] (stereo unspecified) | – | 120 | 78 | 102 | 0.5 | – | – | – | Hypoglycemic activity [6]: 50%
14 | CC(C)c1ccc(OC(C)(Cc2cccc(-c3ccccc3)c2)C(=O)[O-])cc1.[Na+] (stereo unspecified) | – | 83 | 78 | 110 | 0.5 | 76 | – | 87 | Basal uptake [3]: 118%; Basal uptake [4]: 109%; Basal uptake [5]: 193%; Basal uptake [19]: 118%; Hypoglycemic activity [6]: 46%
15 | CC(C)c1ccc(OC(C)(C(=O)NS(=O)(=O)C(F)(F)F)C(C)c2ccc(Cl)cc2)cc1 (stereo unspecified) | 113 | 7 | – | – | > 10 | 248 | 94 | – | –
16 | C1CCC(NC2CCCCC2)CC1.CC(C)c1ccc(OC(Cc2ccc(Cl)c(Cl)c2)C(=O)O)cc1 (stereo unspecified) | – | – | – | – | – | – | – | – | Basal uptake [20]: 225%; Hypoglycemic activity [21]: 65%; ED50 [12]: < 50 mg/kg

Reference: ChEMBL document CHEMBL1129417, “Glucose transport-enhancing and hypoglycemic activity of 2-methyl-2-phenoxy-3-phenylpropanoic acids” (1996)
